The test system of data set [1] is Aβ1-42-mediated neuronal cell death. The data set can be described thus: Inhibition of Aβ1-42-mediated neuronal cell death in Aβ1-42-microinjected neurons, TUNEL. Particulars: 20 mM, 1 hour pre-incubation, 24 hours. Type of data set: cell-based, human. On the procedure: cDNA Clones. Human Bcl-2 cDNA, Bax α cDNA, and APP695 cDNA were cloned into pCep4β (Invitrogen Canada, Burlington, ON, Canada). The p53 wild type and p53R273H dominant negative cDNA may be cloned in the pCMV-NEO vector. These cDNAs were purified through GlassMAXTM (Gibco-BRL, Rockville, Mass.) and diluted at 30 ng/μl in PBS before injection.
Neutralizing Bax antibodies. Monoclonal anti-Bax 6A7 (amino acids 12-24: Pharmingen, San Diego, Calif.) and 2D2 (amino acids 3-16: Trevigen, Gaithersburg, Md.), polyclonal anti-Bax N-20 (Santa Cruz Biotechnology, Santa Cruz, Calif.), monoclonal anti-APP 22C11 (Roche Molecular Biochemicals, Laval, PQ, Canada), mouse IgG or rabbit sera were diluted at 50 μg/ml (for 6A7, 2D2, mouse IgG and 22C11) or 25 μg/ml (for polyclonal anti-Bax and rabbit sera) in PBS before use. A toxicity curve was done to determine this concentration as the highest non-toxic concentration that can be injected in neurons.
(§1) Microinjection. Thin-walled Borosilicate glass capillaries (OD 1.0 mm, ID 0.5 mm) with microfilament (MTW1OOF-4, World Precision Instrument, Sarasota, Fla.) were pulled with a Flaming/Brown Micropipefte Puller (β-87, Sutter, Novato, Calif.) to obtain injection needles with a tip diameter of ˜0.5 μm. Microinjection was performed in the cytosol of each cell using the Eppendorf Microinjector 5246 (Hamburg, Germany) and Burleigh Micromanipulator MIS-5000 (Victor, N.Y.). Human neurons were injected with 25 pl/shot at an injection pressure of 100 hPa, a compensation pressure of 50 hPa, and an injection time of 0.1 s. Human astrocytes, M17, NT2 and La—N-1 cells were injected with 8 pl/shot at an injection pressure of 50 hPa, a compensation pressure of 30 hPa and an injection time of 0.1 s.
Measurement of neuronal apoptosis. Cells were fixed in freshly prepared 4% paraformaldehyde/4% sucrose for 20 minutes at room temperature and permeabilized in 0.1% Triton X-100, 0.1% sodium citrate on ice for 2 minutes. Terminal deoxynucleotidyl transferase-mediated dUTP nick end labeling (TUNEL) was performed using the In Situ Cell Death Detection Kit I as described by the manufacturer (Roche Molecular Biochemicals). The percentage of cell death was determined as the ratio of the number of DTR-TLUNEL-double-positive cells over the total number of DIR-positive cells.
Treatment with caspase inhibitors, cycloheximide, actinomycin D. Caspase pan inhibitor, Z-Valine-Alanine-Aspartic acid-fluoromethylketone (Z-VAD-fmk) (Biomol, Plymounth Meeting, PA); caspase-6 inhibitor, Z-Valine-Glutamic acid-Isoleucine-Aspartic acid-fmk (Z-VEID-fnk); caspase-3 inhibitor, Z-Aspartic acid-Glutamic acid-Valine-Aspartic acid-fmk (Z-DEVD-fmk); and caspase-8 inhibitor, Z-Isoleucine-Glutamic acid-Threomine-Aspartic acid-fmk (Z-IETD-fmk) (Sigma, Oakville, ON, Canada) were dissolved in 100% dimethylsulphoxide (DMSO, Sigma) at 5 mM and were diluted at 5 μM into culture medium immediately before use. The medium was changed every 48 hours.
Stock solutions of 5 mg/ml cycloheximide and 200 IM actinomycin D were made in sterile distilled water and diluted to 5 μg/ml for cycloheximide and 5 μM for actinomycin D in the culture medium immediately before use.
Dextran Texas Red (DTR) was co-injected with Aβ1-42 to identi the injected cells from the non-injected cells. The experiment was done on 200 microinjected neurons per preparation of neurons and on three independent neuron preparations.

Data set [2] relates to human neurons. Put plainly: Neuronal cell death caused by the agent alone (without Aβ1-42). Type of data set: cell-based. Particulars: 20 mM, DTR-injected neurons, 24 hours. On the procedure:
(§2) Measurement of neuronal apoptosis. Cells were fixed in freshly prepared 4% paraformaldehyde/4% sucrose for 20 minutes at room temperature and permeabilized in 0.1% Triton X-100, 0.1% sodium citrate on ice for 2 minutes. Terminal deoxynucleotidyl transferase-mediated dUTP nick end labeling (TUNEL) was performed using the In Situ Cell Death Detection Kit I as described by the manufacturer (Roche Molecular Biochemicals).

Another data set relates to primary human astrocytes. The data set can be described thus: Microinjection of Aβ1-42 into primary human astrocytes, TUNEL/Hoechst. Type of data set: cell-based. The settings on record: up to 100 nM / 8×10^−19 moles injected, 24 hours. On the procedure: Cell cultures. Primary cultures of human neurons and astrocytes were prepared as described in LeBlanc, A., J. Neurosci. 15:7837-46 (1995), incorporated herein by reference. Fresh brain tissues were dissociated with 0.25% trypsin (Gibco-BRL) in phosphate buffered saline (PBS) at 37° C. for 15 minutes. The trypsin was inactivated. by adding 10% decomplemented fetal bovine serum (FBS, HyClone, Logan, Utah.) to the mixture. The dissociated tissues were triturated in 0.1 mg/ml DNaseI (Gibco-BRL) to obtain a homogeneous mixture. The mixture was filtered successively through 130 and 70 gm filters and centrifuged at […] for 10 minutes at 10° C. to pellet the cells. The cell pellet was washed once with PBS and once with minimal essential media (MEM, Gibco-BRL) in Earle's balanced salt solution containing 0.225% sodium bicarbonate, 1 mM sodium pyruvate, 2 mM L-glutamine, 0.1% dextrose, 1×antibiotic Pen-Strep (all from Gibco-BRL) and 5% decomplemented FBS. […]
Measurement of neuronal apoptosis. […] The percentage of cell death was determined as the ratio of the number of DTR-TLUNEL-double-positive cells over the total number of DIR-positive cells. […]
Cell death was identified by TUNEL staining and nuclei detected with Hoechst staining. […] The faint green fluorescence detected in these cells is the results of bleed-through from the red DTR fluorescence on the microscope.

Data set [3] concerns human teratocarcinoma NT2. The data set can be described thus: Microinjection of Aβ1-42 into NT2 cells, TUNEL. Type of data set: cell-based. Particulars: NT2, up to 8×10^−19 moles injected, 24 hours. On the procedure:
(§3) Human neuroblastoma M17 cells were cultured on ACLAR™ coverslips at 1×10^6 cells/ml in OPTI-MEM (Gibco-BRL) containing 5% FBS. Microinjection was performed when the cells reached 70-80% confluence on the coverslips. Human teratocarcinoma NT2 (Stratagene, La Jolla, Calif.) and neuroblastoma La-N-1 cells were cultured on ACLAR™ coverslips at 1×10^6 cells/ml in DMEM (Gibco-BRL) containing 10% FBS. Microinjection was performed when the cells were 50% confluent.
as §1, with “Human astrocytes, M17, NT2 and La—N-1 cells were injected with 8 pl/shot at an injection pressure of 50 hPa, a compensation pressure of 30 hPa and an injection time of 0.1 s.” left out
(§4) Measurement of neuronal apoptosis. […] The percentage of cell death was determined as the ratio of the number of DTR-TLUNEL-double-positive cells over the total number of DIR-positive cells.

For the next data set, the system named is NIH 3T3 fibroblasts. The data set can be described thus: Microinjection of Aβ1-42 into NIH 3T3 fibroblasts, TUNEL. Type of data set: cell-based, mice. Particulars: 24 hours.
Data set [4] concerns human neuroblastoma La-N-1. The data set can be described thus: Microinjection of Aβ1-42 into La-N-1 cells, TUNEL. Type of data set: cell-based. The settings on record: La-N-1, up to 8×10^−19 moles injected, 24 hours. As to the method: as §3
as §1, with “Human astrocytes, M17, NT2 and La—N-1 cells were injected with 8 pl/shot at an injection pressure of 50 hPa, a compensation pressure of 30 hPa and an injection time of 0.1 s.” left out
as §4

The subject of another data set is primary human neurons. The data set can be described thus: Microinjection of Aβ peptides into the cytosol of primary human neurons, cell death by TUNEL. Type of data set: cell-based. Particulars: for number of molecules toxic (as few as / as little as): microinjected neurons. As to the method: Cell cultures. Primary cultures of human neurons and astrocytes were prepared as described in LeBlanc, A., J. Neurosci. 15:7837-46 (1995), incorporated herein by reference. Fresh brain tissues were dissociated with 0.25% trypsin (Gibco-BRL) in phosphate buffered saline (PBS) at 37° C. for 15 minutes. The trypsin was inactivated. by adding 10% decomplemented fetal bovine serum (FBS, HyClone, Logan, Utah.) to the mixture. The dissociated tissues were triturated in 0.1 mg/ml DNaseI (Gibco-BRL) to obtain a homogeneous mixture. The mixture was filtered successively through 130 and 70 gm filters and centrifuged at 15,000 g for 10 minutes at 10° C. to pellet the cells. The cell pellet was washed once with PBS and once with minimal essential media (MEM, Gibco-BRL) in Earle's balanced salt solution containing 0.225% sodium bicarbonate, 1 mM sodium pyruvate, 2 mM L-glutamine, 0.1% dextrose, 1×antibiotic Pen-Strep (all from Gibco-BRL) and 5% decomplemented FBS.
The cells were plated on poly-L-lysine-coated ACLARTM (Cat. No.: 33C; thickness: 0.5 mm; Allied Chemical, Minneapolis, Minn.) coverslips at a density of 3×10^6 cells/ml. Neurons and astrocytes were incubated at 37° C. in the MEM media with 5% CO2, and the media were changed every 48 hours. For neuron culture, 1 mM fluorodeoxyuridine (FDU, Gibco-BRL) was applied for the first 3 feedings and after that, used weekly to prevent proliferation of dividing cells. […] Microinjection or treatment was performed 10 days after plating for neurons and astrocytes.
Aβ peptides. Aβ peptides (Bachem, King of Prussia, Pa.) were dissolved in sterile distilled water at 25 μM and incubated at 37° C. for 5 days. The peptides stock solutions were frozen and diluted in 1×PBS immediately before microinjection. […] A 250 μl aliquot was diluted to 0.25 μM and immediately frozen at −20° C. in aliquots of 50 μl. The remaining solution was incubated at 37° C. in Eppendorf tubes with continuous mixing by inversion. After incubation, the samples were removed, vortexed, sonicated twice for 1 minute in a bath type sonicator (ELMA GmbH & Co. KG, Germany) and frozen at −20° C. in […]. Each aliquot was used once to avoid possible effects of freeze and thaw cycles.
as §1
The diluted peptides were injected at the indicated concentrations with 100 μg/ml dextran Texas Red (DTR) (MW: 3000, Molecular Probes, Eugene, Oreg.) as a fluorescent marker to recognize the injected cells.
as §2

The next data set deals with human neuroblastoma M17. The data set can be described thus: Microinjection of Aβ1-42 into M17 cells, TUNEL. Type of data set: cell-based. The settings on record: M17, up to 8×10^−19 moles injected, 24 hours. On the procedure:
as §3
as §1, with “Human astrocytes, M17, NT2 and La—N-1 cells were injected with 8 pl/shot at an injection pressure of 50 hPa, a compensation pressure of 30 hPa and an injection time of 0.1 s.” left out
as §4

The conditions of data set [5]: determined in a medium or extracellularly; cited from earlier work.
Data set [6] relates to human neurons. Put plainly: Exposure of human neurons to extracellular Aβ peptides, TUNEL and propidium iodide. Type of data set: cell-based. The settings on record: 10 μM extracellular, 24 hours. As to the method:
To test if this particular batch of peptide might be neurotoxic, neurons were treated with 10 μM of peptides for 24 hours.

The test system of data set [7] is baby hamster kidney (BHK) cell lines. The data set can be described thus: Microinjection of Aβ1-42 into BHK cells, TUNEL. Type of data set: cell-based. Particulars: 24 hours.

Several values for one entry are separate records, joined by “and”; a condition that tells them apart may be missing. Identical values can stand only once. Entries after “also recorded” stand apart in the source; their conditions may differ.

`[Cl-].[Li+]` [LiCl2]: in [1], the “protection against intracellular Aβ1-42 toxicity (in words)” value is listed as “efficiently protected”. Moreover, in the data set on human neurons [2], the “cell death with agent and DTR only (in words)” value was “did not undergo cell death”.

For the compound “Aβ1-42: 42 amino acid amyloid β peptide (SEQ ID NO: 2), aged 5 days at 37° C.”, the “intracellular toxicity (in words)” value with primary human astrocytes is on record as “not observed to be toxic; also recorded: completely resist; also recorded: do not show any sign of condensed chromatin by Hoechst staining, nor positive nuclei TUNEL staining”; in the data set on primary human astrocytes (listed as Aβ42), “remain resistant”; in [3], “not observed to be toxic; also recorded: completely resist; also recorded: fails to induce cell death”; in data set [3] (listed as Aβ42) it was “remain resistant”; with NIH 3T3 fibroblasts, “not observed to be toxic; also recorded: fails to induce cell death”; in data set [4] it was “not observed to be toxic; also recorded: completely resist; also recorded: fails to induce cell death”. For the same compound, the “intracellular toxicity (in words)” value is “remain resistant” in data set [4] (listed as Aβ42), “not observed to be toxic; also recorded: completely resist; also recorded: fails to induce cell death” in the data set on human neuroblastoma M17, “remain resistant” with human neuroblastoma M17 (listed as Aβ42) and “not observed to be toxic; also recorded: fails to induce cell death” in data set [7]. Also, the “cell death of microinjected neurons” value with primary human neurons (10 nM aged peptide, 48 hours after injection) is 78%; in the data set on primary human neurons (100-fold dilution in the amount injected (25 pl/shot of 10 nM)), 50%. For the same compound, in the data set with primary human neurons (25 pl/shot of 10 nM), the “amount delivered into the neuron cytosol sufficient to induce rapid neuronal death” value was found to be 2.5e-19 mol. Besides, the “apoptosis of microinjected neurons” value in the data set on primary human neurons (25×10^−21 moles intracellular, within 24 hours after injection) came to 70%. Besides, the “number of molecules giving 50% toxicity” value in the data set on primary human neurons (based on the Avogadro number) came to 1505.5 molecules/neuron. Besides, the “number of molecules injected giving maximal toxicity” value with primary human neurons (based on the Avogadro number) is listed as 150,055 molecules. The “toxic concentration of injected peptide in the cytosol” value with primary human neurons (calculated from injected moles and cytosolic volume 2.5 nL) was 1 pM and 1 to 100 pM. Moreover, the “number of molecules toxic (as few as / as little as)” value with primary human neurons was 1500 molecules; with primary human neurons (listed as Aβ42), 150.5 molecules. The “intracellular toxicity to human neurons (in words)” value in the data set with primary human neurons (peptide microinjected into cytosol) was “rapidly induces cell death”. Also, the “reduction of concentration that still exerts significant toxicity” value with primary human neurons (relative to 25×10^−21 moles/cell, FIG. 1C) lay in the range of 100 to 1000 fold. The “toxic concentration known in the art” value in [5] is 10 to 100 µM. The “toxicity of extracellular peptide (in words)” value with human neurons [6] was “do not undergo cell death; also recorded: Neither extracellular Aβ1-40, Aβ1-42, or Aβ40-1 are toxic”.

The values are drawn from US20040248766A1, “Selective inhibition of intracellular amyloid-beta neurotoxicity in human neurons” (priority 2001, published 2004).
